Measured values as given in patent publication US10183079B2, “Hydrogel microspheres containing peptide ligands for growth factor regulation in blood products” (Wisconsin Alumni Research Foundation, priority 2016, dated 2019).
Square brackets hold non-standard residues; d marks the D form. Primed or numbered codes have the meaning given here. Ends that are not written are not given here. PEG27′ = polyethylene glycol 27 spacer; βAla = NCCC(=O)O

Columns and labels:
[1] = tested on: choroidal neovascularization; test: Mouse choroidal neovascularization model; type: in vivo; conditions: 2 μL/eye
Procedure: Microspheres (generated via sonication) were sanitized either by washing in 70% ethanol or by exposing to UV for 30 minutes prior to injection. Microspheres (F-VBP, F-Scramble, N-VBP, and N-Scramble) were suspended at 2 mg/mL in sterile PBS on the day of experiments. Soluble VBP or Scramble peptide (purchased from GenScript) were dissolved, sterile filtered through 0.2 μm filter, and diluted to 20 μg/mL in sterile PBS before experiments. SU4312 (Sigma) was dissolved in DMSO at 5 μg/mL, and Eylea (Regeneron Pharmaceuticals) was dissolved in PBS at 40 μg/mL and sterile filtered through 0.2 μm filter.
The mouse choroidal neovascularization model was generated as described in FIG. 8A. Briefly, C57BL/6J mice (Jackson Laboratories; 6-weeks old female) eyes were dilated using a drop of tropicamide (1%), and mice were anesthetized with ketamine and xylazine. Mice were subjected to photocoagulation (75 μm spot size, 0.1 s duration, 120 mW) at the 3-, 9-, and 12-o'clock positions of the posterior pole of the eye using an OcuLight GL diode laser (Iridex) with a glass coverslip over the eye. Microspheres were injected into each eye (2 μL/eye) using a pump microinjection apparatus (Harvard Apparatus) or Hamilton syringe. […] The area of ICAM-2+ staining (defined as mean CNV area) at each position (3-, 9-, and 12-o'clock) was quantified using Fiji and automated image thresholding. […]

iPSC-EC = iPSC-EC proliferation, xCELLigence cell index; type: cell-based; conditions: 5 ng/mL VEGF, 48-hour culture; for iPSC-EC proliferation (cell index): soluble peptide
Procedure: Soluble branched VBP containing a PEG-27 spacer (C{βA}K({βA}{PEG-27}KSAPYEWNFDI{Ld}{Yd}{Ad}{Fd}E)2 (SEQ ID NO:10) was synthesized as described above using fmoc solid-phase peptide synthesis, wherein each amino acid after the branch point was added at 8 molar excess relative to the resin free amines with a corresponding 8 molar excess of DIPEA and 4 molar excess of HBTU during the coupling reaction. Peptide purity was assessed using reverse-phase high performance liquid chromatograph, and peptide identity was assessed using matrix-assisted laser desorption time-of-flight spectrometry. Peptide content was assessed using Ellman's assay for free thiol, and both soluble branched VBP2, PEG-27 and VBP2,a were dissolved in PBS for use in cell culture assay. The influence of soluble branched peptides on iPSC-EC proliferation was established using ACEA xCELLigence RTCA-DP. iPSC-EC used in this Example were cultured in iCell-EC Growth Medium (as described in Example 1 above), were passaged using TrypLE, and were used between passage 4-8 for experiments. E-plates (containing gold electrodes on the bottom of each well) were first coated with Fibronectin (Corning) and were seeded with iPSC-EC at a density of 6000 cells/cm^2. Seeded E-plates were cultured on RTCA-DP overnight in Growth Medium, and on the day of experiments, medium was removed and replaced with medium containing 0.1 vol % supplement (CDI) in VascuLife (LifeLine) and L-glutamine (LifeLine) and containing 5 ng/mL VEGF (LifeLine) and the specified concentrations of either VBP2, PEG-27 or VBP2,a. iPSC-EC proliferation was assessed by monitoring the cell index (indicating cell coverage over the gold-coated wells) over a 48-hour period in culture, and at the end of the 48-hour culture, cell indices were averaged for two replicate wells per condition. Statistical analysis at the end of the experiment was performed using two-way analysis of variance (ANOVA) and Tukey's post-hoc test for α=0.05.

Cc1cc(C)c(/C=C2\C(=O)Nc3ccccc32)[nH]1 [SU5416] was tested, and the “mean CNV area, small-molecule inhibitor” value ([1]; 5 μg/mL in DMSO, vehicle control) was “inhibit angiogenesis in this model”.

With “(E{Fd}{Ad}{Yd}{Ld}IDFNWEYPASK)2KC (E[dF][dA][dY][dL]IDFNWEYPASKE[dF][dA][dY][dL]IDFNWEYPASKKC-NH2; also: branched dimer: two arms on K33) [VBP2,a]” the “iPSC-EC proliferation (cell index) at 5 μM” value (iPSC-EC; 5 μM soluble peptide) was “inhibited proliferation at a much greater extent than the VBP2, PEG27” and the “iPSC-EC proliferation (cell index)” value (iPSC-EC) was “inhibited iPSC-EC proliferation in culture with VEGF”.

For “C{βA}K({βA}{PEG-27}KSAPYEWNFDI{Ld}{Yd}{Ad}{Fd}E)2 (C[βAla]K[βAla][PEG27′]KSAPYEWNFDI[dL][dY][dA][dF]E[βAla][PEG27′]KSAPYEWNFDI[dL][dY][dA][dF]E; not fully specified (C-terminus); numbers in words are those of the source; also: branched dimer: two arms on K3) [VBP2, PEG27]”, the “iPSC-EC proliferation (cell index)” value (iPSC-EC) was “inhibited iPSC-EC proliferation in culture with VEGF”.

For “Eylea: commercial anti-angiogenesis compound (Regeneron Pharmaceuticals), soluble VEGF inhibitor protein”, the “mean CNV area, Eylea” value ([1]; 40 μg/mL, control IgG) was “inhibit angiogenesis in this model”.
